Here are results for 25 molecules from US20180148429A1 (SELVITA S.A., priority 2015, published 2018).

The target of the first experiment is T1, Human recombinant His-tagged PFKFB3 (Homo sapiens, UniProt Q16875).
T1 construct: His; made in house
T1 sequence (Q16875 whole entry): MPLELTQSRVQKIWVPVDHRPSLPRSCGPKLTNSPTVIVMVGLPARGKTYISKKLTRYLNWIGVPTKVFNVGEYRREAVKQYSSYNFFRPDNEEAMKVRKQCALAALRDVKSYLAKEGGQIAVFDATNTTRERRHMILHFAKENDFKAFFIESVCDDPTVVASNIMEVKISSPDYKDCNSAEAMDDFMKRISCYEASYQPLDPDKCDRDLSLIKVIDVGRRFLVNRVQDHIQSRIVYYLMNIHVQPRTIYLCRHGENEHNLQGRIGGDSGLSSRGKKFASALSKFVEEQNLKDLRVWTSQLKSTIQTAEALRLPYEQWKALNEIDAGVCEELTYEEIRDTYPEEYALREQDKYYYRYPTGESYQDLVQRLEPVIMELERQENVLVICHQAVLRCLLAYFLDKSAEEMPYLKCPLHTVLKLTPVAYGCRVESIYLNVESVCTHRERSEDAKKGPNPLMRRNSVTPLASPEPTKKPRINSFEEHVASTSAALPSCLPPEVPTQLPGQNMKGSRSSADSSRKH
Kind of experiment: PFKFB3 IC50 determination assay (in vitro kinase assay, modified ADP-Glo system). The experiment is classed as biochemical.
Conditions: not given
The procedure: PFKFB3 IC50 Determination Assay
In vitro kinase assay used to determine IC50 values for tested inhibitors is based on a modified ADP-Glo™ system (Promega) and consists of two parts:
1. Kinase reaction—performed in optimized conditions. At this step PFKFB3 phosphorylates its substrate fructose-6-phosphate using ATP as a source of phosphate to produce fructose-2,6-bisphosphate and ADP. Reaction is performed at Km values for ATP and substrate using optimized buffer composition and time of the reaction. Human recombinant His-tagged PFKFB3 (PFKFB3 BATCH II SEC) with confirmed activity is produced and purified in-house.
2. Detection of ADP as a product of the reaction using ADP-Glo™ system. This part is conducted by using the commercially available kit ADP-Glo™ Kinase Assay (Promega, cat. No# V9103) according to manufacturer's instruction, modified by 5× dilutions of assay reagents (both ADP-Glo™ Reagent and Kinase Detection Solution).
Test compounds are dissolved in DMSO and then transferred to the V-bottom 96-well plate.
15 μL per well of Mix 1 is transferred to assay wells of 96-well white plate. […] Total reaction volume is 30 μL per well. Samples are tested in duplicates. Final concentration of DMSO in the reaction is 6.7%. Conditions needed for performing PFKFB3 (PFKFB3 BATCH II SEC) in vitro kinase assay are given below:
This protocol is based on Technical Bulletin, ADP-Glo™ Kinase Assay (Promega) and is adapted to 96-well plate containing 30 μL reaction mixture:
The plate is incubated for 90 minutes on a shaker at rt. […] Plate is incubated for 40 minutes on a shaker at rt, protected from light. Luminescence is measured in the plate reader Synergy 2 (BioTek).
Luminescent readouts for compounds tested in 10 concentrations (routinely from 100 μM to […], […] serial dilutions) in duplicates, as well as for positive control, are first normalized to no-substrate negative control by its subtraction. In the next step, % of normalized positive control is calculated for each data point and plotted against test compound concentration:
% of control—percent of positive control normalized to no-substrate negative control Lumcpd—luminescence of test compound Lumneg—luminescence of no-substrate negative control Lumpos—luminescence of positive control
IC50 parameter is determined by the GraphPad Prism 5.0 software
[log(inhibitor) vs. response−Variable slope (four parameters)].
On the technique in general: In ADP-Glo the light output rises with the ADP produced.
The term IC50 denotes the concentration that inhibits the measured activity by half. Regarding `Cc1nc(CNc2cc(-c3ccc4ccn(C)c4c3)c3nccnc3c2)n[nH]1` [Example 283, N-[(5-methyl-1H-1,2,4-triazol-3-yl)methyl]-8-(1-methyl-1H-indol-6-yl)quinoxalin-6-amine], the IC50 lay within 1 to 10 µM.
As to `COc1ccc(C(Nc2cc(-c3ccc4ccn(C)c4c3)c3nccnc3c2)c2cnnn2C)cn1` (stereo not shown) [Example 299, N-[(6-methoxypyridin-3-yl)(1-methyl-1H-1,2,3-triazol-5-yl)methyl]-8-(1-methyl-1H-indol-6-yl)quinoxalin-6-amine], the IC50 fell in the range of 0.001 to 1 µM.

Still in this experiment, the particulars now being: ADP-Glo; ATP 20 μM (Km), fructose-6-phosphate 2 μM (Km), 25 nM PFKFB3, 2 h, rt; read-out: PFKFB3 IC50.
On to `CNC(=O)CN1CCC(C(Nc2cc(-c3ccc4ccn(C)c4c3)c3nccnc3c2)c2cccnc2)CC1` (stereo not shown) [Example 275, N-methyl-2-[4-({[8-(1-methyl-1H-indol-6-yl)quinoxalin-6-yl]amino}(pyridin-3-yl)methyl)piperidin-1-yl]acetamide], for which the IC50 was 0.001 to 1 µM.
For `CN(C)C(=O)CN1CCC(C(Nc2cc(-c3ccc4ccn(C)c4c3)c3nccnc3c2)c2cccnc2)CC1` (stereo not shown) [Example 276, N,N-dimethyl-2-[4-({[8-(1-methyl-1H-indol-6-yl)quinoxalin-6-yl]amino}(pyridin-3-yl)methyl)piperidin-1-yl]acetamide], the concentration for half-maximal inhibition (IC50) was 0.001 to 1 µM.
On the same count and under the same terms, as for `CCN(CC)C(=O)CN1CCC(C(Nc2cc(-c3ccc4ccn(C)c4c3)c3nccnc3c2)c2cccnc2)CC1` (stereo not shown) [Example 277, N,N-diethyl-2-[4-({[8-(1-methyl-1H-indol-6-yl)quinoxalin-6-yl]amino}(pyridin-3-yl)methyl)piperidin-1-yl]acetamide], the figure is 1 to 10 µM; as for `Cn1ccc2ccc(-c3cc(NC(c4cccnc4)C4CCN(C(=O)CCN)CC4)cc4nccnc34)cc21` (stereo not shown) [Example 278, 3-amino-1-[4-({[8-(1-methyl-1H-indol-6-yl)quinoxalin-6-yl]amino}(pyridin-3-yl)methyl)piperidin-1-yl]propan-1-one], 1 to 10 µM; as for `Cn1cnnc1CNc1cc(-c2ccc3ccn(C)c3c2)c2nccnc2c1` [Example 279, 8-(1-methyl-1H-indol-6-yl)-N-[(4-methyl-4H-1,2,4-triazol-3-yl)methyl]quinoxalin-6-amine], 1 to 10 µM.
For the molecule `Cc1cc(CNc2cc(-c3ccc4ccn(C)c4c3)c3nccnc3c2)sn1` [Example 280, N-[(3-methyl-1,2-thiazol-5-yl)methyl]-8-(1-methyl-1H-indol-6-yl)quinoxalin-6-amine], the IC50 is 1 to 10 µM.
Still for that read-out and setting: as for `Cn1ccc2ccc(-c3cc(NCc4ccns4)cc4nccnc34)cc21` [Example 281, 8-(1-methyl-1H-indol-6-yl)-N-[(1,2-thiazol-5-yl)methyl]quinoxalin-6-amine], the figure is 0.001 to 1 µM.
Regarding `Cc1nnc(CNc2cc(-c3ccc4ccn(C)c4c3)c3nccnc3c2)o1` [Example 282, N-[(5-methyl-1,3,4-oxadiazol-2-yl)methyl]-8-(1-methyl-1H-indol-6-yl)quinoxalin-6-amine], the IC50 fell in the range of 1 to 10 µM.
In the case of `Cn1ccc2ccc(-c3cc(NCc4c[nH]cn4)cc4nccnc34)cc21` [Example 284, N-(1H-imidazol-4-ylmethyl)-8-(1-methyl-1H-indol-6-yl)quinoxalin-6-amine], the IC50 lay within 10 to 100 µM.
Take `Cc1ncc(CNc2cc(-c3ccc4ccn(C)c4c3)c3nccnc3c2)n1C` [Example 285, N-[(1,2-dimethyl-1H-imidazol-5-yl)methyl]-8-(1-methyl-1H-indol-6-yl)quinoxalin-6-amine]: the IC50 lay in the range of 1 to 10 µM.
On the same count and under the same terms, as for `CC(=O)N1CCC(C(Nc2cc(-c3ccc4ccn(C)c4c3)c3nccnc3c2)c2cnccc2C)CC1` (stereo not shown) [Example 287, 1-[4-({[8-(1-methyl-1H-indol-6-yl)quinoxalin-6-yl]amino}(4-methylpyridin-3-yl)methyl)piperidin-1-yl]ethan-1-one], the figure is 0.001 to 1 µM.
In the case of `Cn1ccc2ccc(-c3cc(NC(c4cccnc4)c4ccnc(N)c4)cc4nccnc34)cc21` (stereo not shown) [Example 288, N-[(2-aminopyridin-4-yl)(pyridin-3-yl)methyl]-8-(1-methyl-1H-indol-6-yl)quinoxalin-6-amine], the IC50 fell in the range of 0.001 to 1 µM.
Still for that read-out and setting: as for `CC(=O)N1CC(C(Nc2cc(-c3ccc4ccn(C)c4c3)c3nccnc3c2)c2cccnc2)C1` (stereo not shown) [Example 289, 1-[3-({[8-(1-methyl-1H-indol-6-yl)quinoxalin-6-yl]amino}(pyridin-3-yl)methyl)azetidin-1-yl]ethan-1-one], the figure is 1 to 10 µM; as for `Cn1cnc(C(Nc2cc(-c3ccc4ccn(C)c4c3)c3nccnc3c2)c2cccnc2)c1` (stereo not shown) [Example 290, N-[(1-methyl-1H-imidazol-4-yl)(pyridin-3-yl)methyl]-8-(1-methyl-1H-indol-6-yl)quinoxalin-6-amine], 1 to 10 µM.
As for `COc1ccc(C(Nc2cc(-c3ccc4sc(N)nc4c3)c3nccnc3c2)C2CCN(C(C)=O)CC2)cn1` (stereo not shown) [Example 291, 1-[4-({[8-(2-amino-1,3-benzothiazol-5-yl)quinoxalin-6-yl]amino}(6-methoxypyridin-3-yl)methyl)piperidin-1-yl]ethan-1-one], the IC50 fell in the range of 10 to 100 µM.
Consider `CC(=O)N1CCC(C(Nc2cc(-c3ccc(Br)cc3)c3nccnc3c2)c2cccnc2)CC1` (stereo not shown) [Example 292, 1-[4-({[8-(4-bromophenyl)quinoxalin-6-yl]amino}(pyridin-3-yl)methyl)piperidin-1-yl]ethan-1-one], for which the IC50 lay within 10 to 100 µM.
On the same count and under the same terms, as for `CC(=O)N1CCC(C(Nc2cc(-c3ccc4sc(N)nc4c3)c3nccnc3c2)c2cccnc2)CC1` (stereo not shown) [Example 293, 1-[4-({[8-(2-amino-1,3-benzothiazol-5-yl)quinoxalin-6-yl]amino}(pyridin-3-yl)methyl)piperidin-1-yl]ethan-1-one], the figure is 1 to 10 µM.
Same read-out and setting: as for `CC(=O)N1CCC(C(Nc2cc(-c3ccc4ccn(C)c4c3)c3nccnc3c2)c2ccc(=O)n(C)c2)CC1` (stereo not shown) [Example 294, 5-[(1-acetylpiperidin-4-yl)({[8-(1-methyl-1H-indol-6-yl)quinoxalin-6-yl]amino})methyl]-1-methyl-1,2-dihydropyridin-2-one], the figure is 1 to 10 µM.
As to `COc1ccc(C(Nc2cc(-c3ccc4sc(N)nc4c3)c3nccnc3c2)c2cccnc2)cn1` (stereo not shown) [Example 295, 8-(2-amino-1,3-benzothiazol-5-yl)-N-[(6-methoxypyridin-3-yl)(pyridin-3-yl)methyl]quinoxalin-6-amine], the IC50 was 0.001 to 1 µM.
On to `Cn1ccc2ccc(-c3cc(NC(c4cccnc4)c4ccc(N)nc4)cc4nccnc34)cc21` (stereo not shown) [Example 296, N-[(6-aminopyridin-3-yl)(pyridin-3-yl)methyl]-8-(1-methyl-1H-indol-6-yl)quinoxalin-6-amine], for which the half-maximal inhibitory concentration (IC50) fell in the range of 0.001 to 1 µM.
As to `COc1ccc(C(c2cccnc2)N(C)c2cc(-c3ccc4ccn(C)c4c3)c3nccnc3c2)cn1` (stereo not shown) [Example 297, N-[(6-methoxypyridin-3-yl)(pyridin-3-yl)methyl]-N-methyl-8-(1-methyl-1H-indol-6-yl)quinoxalin-6-amine], the IC50 lay in the range of 10 to 100 µM.
With `CNC(=O)N1CCC(C(Nc2cc(-c3ccc4ccn(C)c4c3)c3nccnc3c2)c2cccnc2)CC1` (stereo not shown) [Example 298, N-methyl-4-({[8-(1-methyl-1H-indol-6-yl)quinoxalin-6-yl]amino}(pyridin-3-yl)methyl)piperidine-1-carboxamide], the IC50 was in the range of 0.001 to 1 µM.
Regarding `CN(C)C(=O)N1CCC(C(Nc2cc(-c3ccc4ccn(C)c4c3)c3nccnc3c2)c2cccnc2)CC1` (stereo not shown) [Example 300, N,N-dimethyl-4-({[8-(1-methyl-1H-indol-6-yl)quinoxalin-6-yl]amino}(pyridin-3-yl)methyl)piperidine-1-carboxamide], the IC50 lay within 0.001 to 1 µM.
